Details: 293.15 K, Liquid, Vibrating tube method

CCCCCCCCCC [decane]
Details | mass density [kg/m3]
17005 kPa | 742.2
17022 kPa | 742.3
17041 kPa | 742.3
17058 kPa | 742.3
17074 kPa | 742.3
17089 kPa | 742.1
17103 kPa | 742.4
17122 kPa | 742.2
17142 kPa | 742.2
17156 kPa | 742.3
17176 kPa | 742.3
17193 kPa | 742.3
17207 kPa | 742.3
17227 kPa | 742.3
17240 kPa | 742.3
17257 kPa | 742.4
17274 kPa | 742.5
17296 kPa | 742.3
17313 kPa | 742.4
17338 kPa | 742.4
17352 kPa | 742.4
17370 kPa | 742.4
17390 kPa | 742.4
17410 kPa | 742.4
17425 kPa | 742.4
17440 kPa | 742.5
17453 kPa | 742.5
17471 kPa | 742.5
17486 kPa | 742.5
17508 kPa | 742.5
17521 kPa | 742.6
17538 kPa | 742.6
17558 kPa | 742.6
17571 kPa | 742.6
17589 kPa | 742.5
17610 kPa | 742.6
17627 kPa | 742.7
17648 kPa | 742.6
17663 kPa | 742.6
17679 kPa | 742.6
17699 kPa | 742.6
17715 kPa | 742.7
17736 kPa | 742.7
17752 kPa | 742.7
17772 kPa | 742.8
17787 kPa | 742.6
17806 kPa | 742.7
17828 kPa | 742.8
17849 kPa | 742.7
17868 kPa | 742.8
17883 kPa | 742.8
17899 kPa | 742.8
17913 kPa | 742.8
17931 kPa | 742.9
17955 kPa | 743
17969 kPa | 742.9
17985 kPa | 743
18004 kPa | 742.9
18017 kPa | 742.9
18036 kPa | 742.9
18058 kPa | 743
18072 kPa | 743
18088 kPa | 743
18102 kPa | 742.9
18118 kPa | 742.9
18140 kPa | 743
18162 kPa | 742.9
18178 kPa | 743.2
18195 kPa | 743
18214 kPa | 743
18233 kPa | 743
18256 kPa | 742.9
18273 kPa | 743.2
18295 kPa | 743
18317 kPa | 743
18342 kPa | 743.1
18359 kPa | 743.1
18381 kPa | 743.1
18400 kPa | 743.1
18418 kPa | 743.2
18434 kPa | 743.1
18457 kPa | 743.3
18474 kPa | 743.3
18500 kPa | 743.2
18520 kPa | 743.3
18538 kPa | 743.2
18560 kPa | 743.3
18581 kPa | 743.3
18599 kPa | 743.3
18622 kPa | 743.3
18645 kPa | 743.4
18663 kPa | 743.4
18686 kPa | 743.3
18701 kPa | 743.3
18728 kPa | 743.3
18745 kPa | 743.3
18766 kPa | 743.4
18793 kPa | 743.4
18811 kPa | 743.5
18832 kPa | 743.4
18849 kPa | 743.4
18871 kPa | 743.5
18888 kPa | 743.5
18912 kPa | 743.5
18936 kPa | 743.6
18955 kPa | 743.5
18976 kPa | 743.6
19001 kPa | 743.6
19019 kPa | 743.6
19043 kPa | 743.6
19062 kPa | 743.5
19077 kPa | 743.5
19096 kPa | 743.7
19115 kPa | 743.7
19134 kPa | 743.7
19153 kPa | 743.7
19172 kPa | 743.6
19191 kPa | 743.6
19259 kPa | 743.8
19307 kPa | 743.7
19325 kPa | 743.7
19340 kPa | 743.7
19353 kPa | 743.9
19374 kPa | 743.8
19395 kPa | 743.9
19408 kPa | 743.8
19424 kPa | 743.9
19451 kPa | 743.9
19464 kPa | 743.9
19480 kPa | 743.8
19495 kPa | 743.8
19511 kPa | 743.8
19524 kPa | 743.8
19536 kPa | 743.9
19556 kPa | 743.9
19575 kPa | 744
19589 kPa | 743.9
19602 kPa | 743.9
19616 kPa | 743.9
19630 kPa | 743.8
19643 kPa | 744
19662 kPa | 744
19678 kPa | 743.9
19692 kPa | 744
19712 kPa | 744
19726 kPa | 744
19742 kPa | 744
19763 kPa | 744
19775 kPa | 744
19793 kPa | 744.1
19810 kPa | 744.1
19824 kPa | 744.2
19838 kPa | 744.1
19852 kPa | 744.1
19866 kPa | 744.1
19883 kPa | 744.1
19897 kPa | 744.1
19914 kPa | 744.2
19935 kPa | 744.2
19950 kPa | 744.2
19969 kPa | 744.4
19983 kPa | 744.2
19999 kPa | 744.2
20016 kPa | 744.2
20035 kPa | 744.3
20055 kPa | 744.2
20072 kPa | 744.3
20084 kPa | 744.3
20103 kPa | 744.2
20120 kPa | 744.2
20137 kPa | 744.3
20152 kPa | 744.2
20165 kPa | 744.3
20181 kPa | 744.2
20196 kPa | 744.4
20218 kPa | 744.4
20233 kPa | 744.4
20251 kPa | 744.3
20263 kPa | 744.5
20288 kPa | 744.3
20306 kPa | 744.4
20326 kPa | 744.3
20343 kPa | 744.4
20365 kPa | 744.5
20383 kPa | 744.5
20398 kPa | 744.5
20413 kPa | 744.5
20428 kPa | 744.5
20450 kPa | 744.6
20470 kPa | 744.5
20485 kPa | 744.5
20503 kPa | 744.6
20519 kPa | 744.5
20535 kPa | 744.6
20555 kPa | 744.6
20576 kPa | 744.6
20591 kPa | 744.6
20611 kPa | 744.6
20636 kPa | 744.6
20654 kPa | 744.6
20670 kPa | 744.7
20688 kPa | 744.8
20711 kPa | 744.7
20727 kPa | 744.6
20743 kPa | 744.7
20764 kPa | 744.6
20785 kPa | 744.7
20803 kPa | 744.7
20822 kPa | 744.7
20837 kPa | 744.9
20856 kPa | 744.7
20872 kPa | 744.8
20893 kPa | 744.8
20909 kPa | 744.8
20930 kPa | 744.9
20946 kPa | 744.9
20964 kPa | 744.9
20980 kPa | 744.9
20999 kPa | 745
21015 kPa | 744.9
21039 kPa | 744.9
21058 kPa | 744.9
21074 kPa | 744.8
21093 kPa | 744.9
21109 kPa | 745
21128 kPa | 744.9
21144 kPa | 745
21163 kPa | 745
21179 kPa | 744.9
21196 kPa | 745.1
21212 kPa | 745
21228 kPa | 744.9
21247 kPa | 744.9
21266 kPa | 745.1
21283 kPa | 745.1
21304 kPa | 745
21320 kPa | 745.2
21339 kPa | 745.1
21361 kPa | 745.1
21381 kPa | 745.2
21397 kPa | 745.2
21417 kPa | 745.2
21436 kPa | 745.1
21453 kPa | 745.1
21470 kPa | 745.2
21492 kPa | 745
21514 kPa | 745.1
21534 kPa | 745.2
21559 kPa | 745.2
21576 kPa | 745.2
21596 kPa | 745.3
21619 kPa | 745.3
21641 kPa | 745.2
21661 kPa | 745.2
21681 kPa | 745.2
21704 kPa | 745.4
21724 kPa | 745.3
21747 kPa | 745.4
21764 kPa | 745.4
21789 kPa | 745.5
21810 kPa | 745.3
21827 kPa | 745.3
21847 kPa | 745.5
21865 kPa | 745.5
21885 kPa | 745.4
21900 kPa | 745.3
21924 kPa | 745.5
21947 kPa | 745.5
21965 kPa | 745.4
21983 kPa | 745.4
22000 kPa | 745.4
22018 kPa | 745.5
22037 kPa | 745.5
22053 kPa | 745.5

From the NIST ThermoML archive (doi:10.1021/je800110r)
